# Source: US20150110725A1, “MIXTURE FOR THE INHIBITION OF MELANIN BIOSYNTHESIS” (GENERAL TOPICS S.R.L., priority 2012, published 2015)
# Test system: murine melanoma named B16
# Test: Inhibition of melanin biosynthesis in secondary cultures of murine melanoma B16, 72 hours of exposure
# Type: cell-based
# Description: In order to evaluate the inhibition of melanin biosynthesis by the present mixture, an in vitro experimental model was used which consists of secondary cultures of a murine melanoma named B16. This strain is composed of cells with fibroblastoid morphology which produce melanin (Source: European Collection of Cell Cultures, ECACC).
# For the tests, powders of the active ingredients were dissolved in ethanol and propylene glycol (1:1) at 10% (w/w) followed by dilution in culture medium DMEM high glucose+10% FBS supplemented with antibiotics (Penicillin 2000 IU/ml, Streptomycin 1000 IU/ml, Gentamicin 10 mg/ml) to final concentrations of: • A) 4-(1-phenylethyl)-1,3-benzenediol: 10 μg/ml; • B) Acetylglucosamine: 25 μg/ml, 50 μg/ml, 75 μg/ml; • C) Ethyl linoleate: 50 μg/ml; • D) 4-(1-phenylethyl)-1,3-benzenediol at concentration of 10 μg/ml and acetylglucosamine at concentration of 75 μg/ml; • E) 4-(1-phenylethyl)-1,3-benzenediol at a concentration of 10 μg/ml, acetylglucosamine at a concentration of 75 μg/ml, and ethyl linoleate at a concentration of 75 μg/ml. • F) hydroquinone at a concentration of 5 μg/ml (non-cytotoxic concentration)
# At passage 30 the afore said cells were seeded on 6-well plates for 24 hours at a concentration of 80,000 cells per well. Then, fresh culture medium containing the afore said samples was added. Untreated cells were used as a negative control, whereas cells treated with hydroquinone at a non-cytotoxic concentration of 5 μg/ml were used as a positive control, as indicated above at point F).
# Each sample was tested in duplicate.
# After 72 hours of exposure, melanin and intracellular proteins were dosed.
# Cells were washed once with phosphate buffered saline (PBS) and then lysed with NaOH 0.1N. The lysate was heated at 60° C. for 1 hour to allow melanin to be solubilized.
# In order to evaluate the amount of melanin in the cell lysate, a spectrophotometric reading was taken at a wavelength of 405 nm with the use of a colorimeter (Tecan Sunrise Remote Model) equipped with a plate reader.
# A standard curve for melanin titrated from 15 to 500 μg/ml was prepared.
# The protein dosage was carried out according to the Bradford's method (Bradford M., […]). […]
# The reading was taken at 595 nm with a colorimeter (Tecan, Sunrise) equipped with a plate reader.
# In order to quantify protein and melanin contents, a standard calibration curve for albumin and melanin was constructed, and their concentrations in the samples were calculated by using the curve fit formula and the corresponding absorbances.
# Then, averages of individual data were calculated and, for each sample, the percentage reduction of melanin was calculated compared to the negative control: […]
smiles,measurement,setting,value
CCCCC/C=C\C/C=C\CCCCCCCC(=O)OCC [ethyl linoleate],ability to inhibit melanin synthesis when used individually,"ethyl linoleate alone (50 μg/ml), compared with the mixture containing it",significantly lower than that of the present mixture
CC(=O)N[C@@H]1[C@@H](O)[C@H](O)[C@@H](CO)O[C@@H]1O [acetylglucosamine],average reduction in melanin biosynthesis,"acetylglucosamine alone, average over 25 μg/ml, 50 μg/ml and 75 μg/ml, B16 cells, 72 h",8%
Oc1ccc(O)cc1 [hydroquinone],inhibition at 5 µg/mL,"Mus musculus, hydroquinone at non-cytotoxic concentration (5 μg/ml), positive control, B16 cells, 72 h, read-out: ability to inhibit melanin biosynthesis",~40%
"CC(c1ccccc1)c1ccc(O)cc1O (stereo not shown) [4-(1-phenylethyl)-1,3-benzenediol]",percentage reduction in melanin biosynthesis,"10 μg/ml, B16 cells, 72 h",about 50%
